One series deals with HIV-1 strain JR-CSF. Nature of the series: Modified PBMC (PBL) assay with human serum titration. The series is classed as cell-based. On the procedure:
In this assay, 8×10^6 cells from pooled donors were incubated with virus for 1 hour, followed by centrifugation for 1 hour. Cells were then gently re-suspended and incubated an additional 2 hours.

For series [1], the system named is NL4-3 strain with V370A site directed mutant polymorphism. The experiment in a line: MT4 antiviral assay, NL4-3 strain with V370A site directed mutant polymorphism. The series is classed as cell-based, HIV-1. Particulars: Human immunodeficiency virus 1, NL43, MT4 cells.
A further series has as its system HIV NL4-3 wt. Nature of the series: MT4 antiviral assay, NL4-3 strain wild type. The series is classed as cell-based, HIV-1. The settings on record: for pEC50: Human immunodeficiency virus 1, NL43, MT4 cells.
For series [2], the system named is HIV. Nature of the series: Standard PBMC assay (0% human serum). In kind it is cell-based. Particulars: Human immunodeficiency virus 1, PBMC, 168 h, PBMCs, 7 days.
Description: Following incubation in both the standard and modified assays, supernatants were assayed for reverse transcriptase (RT) activity and p24 antigen content by ELISA and spectrophotometric analysis at 450 nM.
Series [3] deals with HIV. Particulars: cited from earlier work.
For another series, the system named is HIV-1 (strain IIIB). The experiment in a line: MT4 Cell Antiviral Assay (propidium iodide or MTS readout). The series is classed as cell-based. Particulars: Human immunodeficiency virus 1, IIIB, read-out: expected range of IC50 values (control and standard).

pEC50, pIC50: −log10 of the molar value. Read-outs that look alike come from different tables or passages of the source. A value given as a limit tells only on which side of the number the result lay.

In general, pIC50 refers to the negative decadic logarithm of the IC50, by convention in mol/L. On to `CC(C)C1=C2[C@H]3CC[C@@H]4[C@@]5(C)CC[C@H](OC(=O)CC(C)(C)C(=O)O)C(C)(C)[C@@H]5CC[C@@]4(C)[C@]3(C)CC[C@@]2([C@@H](O)CN(CCN(C)C)Cc2ccc(Cl)cc2)CC1=O` [Compound 51, 4-(((3aR,5aR,5bR,7aR,9S,11aR,11bR,13aS)-3a-((R)-2-((4-Chlorobenzyl)(2-(dimethylamino)ethyl)amino)-1-hydroxyethyl)-1-isopropyl-5a,5b,8,8,11a-pentamethyl-2-oxo-3,3a,4,5,5a,5b,6,7,7a,8,9,10,11,11a,11b,12,13,13a-octadecahydro-2H-cyclopenta[a]chrysen-9-yl)oxy)-2,2-dimethyl-4-oxobutanoic acid], for which the pIC50 in the series on HIV-1 strain JR-CSF (Human immunodeficiency virus 1, PBMC, read-out: estimated IC50 for 100% human serum, linear extrapolation from normalized IC50 values) was 9.48; in the series on HIV-1 strain JR-CSF (Human immunodeficiency virus 1, PBMC, 10%, 20%, 30% and 40% human serum, read-out: IC50 in the presence of human serum), 8.51 to 9.28.

As a reminder, the IC50 is the concentration that gives 50% inhibition. `C=C(C)[C@@H]1CC[C@]2(C(=O)O)CC[C@]3(C)[C@H](CC[C@@H]4[C@@]5(C)CC[C@H](OC(=O)CC(C)(C)C(=O)O)C(C)(C)[C@@H]5CC[C@]43C)[C@@H]12` [Bevirimat]: the pEC50 in series [1] (read-out: EC50, MT4 antiviral assay NL4-3 strain with V370A polymorphism) is 5.22; in series [1] (read-out: MT4 NL. V370A EC50), 5.22; in the series on HIV NL4-3 wt (Consensus Clade B Sp1 Genotype, read-out: MT4 NL. wt* EC50) it was 6.65; with HIV NL4-3 wt (read-out: EC50, MT4 antiviral assay NL4-3 strain / HIV wild type potency), 6.65. Further, in the series with HIV-1 strain JR-CSF (10-40% human serum vs standard assay), the “effect of human serum on IC50 values” was “large increase in the IC50 values”. In addition, the concentration for half-maximal inhibition (IC50) in the series on HIV-1 strain JR-CSF (Human immunodeficiency virus 1, PBMC, 10%, 20%, 30% and 40% human serum, unit mM, read-out: IC50 in the presence of human serum) was 1380 to 13000 nM. For the same molecule, in the series with HIV-1 strain JR-CSF (extrapolated, compared to control experiment), the “fold change in the IC50 value in the presence of 100% serum” value is reported as 2,310 fold. In the series with HIV [2], this molecule had a pIC50 of 8.01. Further, the Cmin target with HIV [3] (clinical, McCallister et al. poster 2008) is greater than 20 µg/mL. Further, in the series with HIV [3] (patients with trough levels >=20 μg/mL and no baseline Gag polymorphisms at Q369, V370 or T371), the “mean reduction of HIV viral load” value is reported as 1.3 log10/mL.

Turning to `Cc1cn([C@H]2C[C@H](N=[N+]=[N-])[C@@H](CO)O2)c(=O)[nH]c1=O` [3′-azido-3′-deoxythymidine], the pIC50 with HIV-1 (strain IIIB) was 6.92 to 7.40.

On to `CC(C)C1=C2[C@H]3CC[C@@H]4[C@@]5(C)CC[C@H](OC(=O)CC(C)(C)C(=O)O)C(C)(C)[C@@H]5CC[C@@]4(C)[C@]3(C)CC[C@@]2([C@@H](O)CNCc2ccc(Cl)cc2)CC1=O` [Example 14, 4-(((3aR,5aR,5bR,7aR,9S,11aR,11bR,13aS)-3a-((R)-2-((4-Chlorobenzyl)amino)-1-hydroxyethyl)-1-isopropyl-5a,5b,8,8,11a-pentamethyl-2-oxo-3,3a,4,5,5a,5b,6,7,7a,8,9,10,11,11a,11b,12,13,13a-octadecahydro-2H-cyclopenta[a]chrysen-9-yl)oxy)-2,2-dimethyl-4-oxobutanoic acid], for which, in the series on HIV NL4-3 wt (read-out: EC50 NL4-3 wt), the pEC50 was 8.68.

For the molecule `CC(=O)O[C@@H](CNCc1ccccc1)[C@@]12CC[C@]3(C)[C@H](CC[C@@H]4[C@@]5(C)CC[C@H](OC(=O)CC(C)(C)C(=O)O)C(C)(C)[C@@H]5CC[C@]43C)C1=C(C(C)C)C(=O)C2` [Example 52, 4-(((3aR,5aR,5bR,7aR,9S,11aR,11bR,13aS)-3a-((R)-1-Acetoxy-2-(benzylamino)ethyl)-1-isopropyl-5a,5b,8,8,11a-pentamethyl-2-oxo-3,3a,4,5,5a,5b,6,7,7a,8,9,10,11,11a,11b,12,13,13a-octadecahydro-2H-cyclopenta[a]chrysen-9-yl)oxy)-2,2-dimethyl-4-oxobutanoic acid], in the series on HIV NL4-3 wt (read-out: EC50 NL4-3 wt), the pEC50 is 8.34.

As for `CC(=O)N(Cc1cccc(Cl)c1)C[C@H](O)[C@@]12CC[C@]3(C)[C@H](CC[C@@H]4[C@@]5(C)CC[C@H](OC(=O)CC(C)(C)C(=O)O)C(C)(C)[C@@H]5CC[C@]43C)C1=C(C(C)C)C(=O)C2` [Compound 46], in the series with HIV NL4-3 wt (read-out: EC50 NL4-3 wt), the pEC50 is 7.95.

With `CC(C)C1=C2[C@H]3CC[C@@H]4[C@@]5(C)CC[C@H](OC(=O)CC(C)(C)C(=O)O)C(C)(C)[C@@H]5CC[C@@]4(C)[C@]3(C)CC[C@@]2([C@H](O)CNCc2ccccc2Cl)CC1=O` [Example 24, 4-(((3aR,5aR,5bR,7aR,9S,11aR,11bR,13aS)-3a-((S)-2-((2-Chlorobenzyl)amino)-1-hydroxyethyl)-1-isopropyl-5a,5b,8,8,11a-pentamethyl-2-oxo-3,3a,4,5,5a,5b,6,7,7a,8,9,10,11,11a,11b,12,13,13a-octadecahydro-2H-cyclopenta[a]chrysen-9-yl)oxy)-2,2-dimethyl-4-oxobutanoic acid], the pEC50 in the series on HIV NL4-3 wt (read-out: EC50 NL4-3 wt) is 7.39.

`CC(C)C1=C2[C@H]3CC[C@@H]4[C@@]5(C)CC[C@H](OC(=O)CC(C)(C)C(=O)O)C(C)(C)[C@@H]5CC[C@@]4(C)[C@]3(C)CC[C@@]2(CCNCc2ccc(Cl)cc2)CC1=O` [Example 5, 4-(((3aR,5aR,5bR,7aR,9S,11aR,11bR,13aS)-3a-(2-((4-Chlorobenzyl)amino)ethyl)-1-isopropyl-5a,5b,8,8,11a-pentamethyl-2-oxo-3,3a,4,5,5a,5b,6,7,7a,8,9,10,11,11a,11b,12,13,13a-octadecahydro-2H-cyclopenta[a]chrysen-9-yl)oxy)-2,2-dimethyl-4-oxobutanoic acid]: the pEC50 in the series with HIV NL4-3 wt (read-out: EC50 NL4-3 wt) was 8.59.

For orientation: EC50 means the midpoint of the concentration-response curve. As for `CC(C)C1=C2[C@H]3CC[C@@H]4[C@@]5(C)CC[C@H](OC(=O)CC(C)(C)C(=O)O)C(C)(C)[C@@H]5CC[C@@]4(C)[C@]3(C)CC[C@@]2([C@H]2CN(C3(c4ncc(Cl)cn4)CC3)C(=O)O2)CC1=O` [Example 60, 4-(((3aR,5aR,5bR,7aR,9S,11aR,11bR,13aS)-3a-((S)-3-(1-(5-chloropyrimidin-2-yl)cyclopropyl)-2-oxooxazolidin-5-yl)-1-isopropyl-5a,5b,8,8,11a-pentamethyl-2-oxo-3,3a,4,5,5a,5b,6,7,7a,8,9,10,11,11a,11b,12,13,13a-octadecahydro-2H-cyclopenta[a]chrysen-9-yl)oxy)-2,2-dimethyl-4-oxobutanoic acid], the EC50 in the series on HIV NL4-3 wt (Human immunodeficiency virus 1, NL43, MT4, read-out: EC50 NL4-3 wt (nM)) is 60.2 nM.

In the case of `CC(=O)O[C@@H](CNCc1ccc(F)cc1)[C@@]12CC[C@]3(C)[C@H](CC[C@@H]4[C@@]5(C)CC[C@H](OC(=O)CC(C)(C)C(=O)O)C(C)(C)[C@@H]5CC[C@]43C)C1=C(C(C)C)C(=O)C2` [Example 27, 4-(((3aR,5aR,5bR,7aR,9S,11aR,11bR,13aS)-3a-((R)-1-acetoxy-2-((4-fluorobenzyl)amino)ethyl)-1-isopropyl-5a,5b,8,8,11a-pentamethyl-2-oxo-3,3a,4,5,5a,5b,6,7,7a,8,9,10,11,11a,11b,12,13,13a-octadecahydro-2H-cyclopenta[a]chrysen-9-yl)oxy)-2,2-dimethyl-4-oxobutanoic acid], the pEC50 in the series on HIV NL4-3 wt (read-out: EC50 NL4-3 wt) was 8.09.

The record behind these values is patent US10064873B2, “Compounds and compositions for treating HIV with derivatives of Betulin” (GlaxoSmithKline LLC, priority 2011, dated 2018).
